According to patent publication US8916584B2 (Vanderbilt University, priority 2010, dated 2014):

Target: T1, mGluR4 (Homo sapiens, UniProt Q14833)
T1 construct: expressed in transfected cells; host or cells: CHO cells (human mGluR4) or HEK cells (rat mGluR4 with GIRK)
Assay: mGluR4 potentiation assay (fluorometric plate reader, compound then EC20 agonist); species for the tabulated values not stated
Format: cell-based
Details: EC50 for potentiation of mGluR4; EC20 concentration of agonist
Procedure: The disclosed compounds and compositions can be evaluated for their ability to act as a potentiator of metabotropic glutamate receptor activity, in particular mGluR4 activity, by any suitable known methodology known in the art. For example, Chinese Hamster Ovary (CHO) cells transfected with human mGluR4 or HEK cells co-transfected with rat mGluR4 and the G-protein regulated Inwardly Rectifying Potassium channel (GIRK) were plated in clear bottom assay plates for assay in a Hamamatsu FDSS Fluorometric Plate Reader. The cells were loaded with either a Ca2+-sensitive fluorescent dye or the thallium responsive dye and the plates were washed and placed into a suitable kinetic plate reader. For human mGluR4 assays, a fluorescence baseline was established for 3-5 seconds, the disclosed compounds were then added to the cells, and the response in cells was measured. Approximately two and a half minutes later, a concentration of mGluR4 orthosteric agonist (e.g. glutamate or L-AP4) eliciting approximately 20% (EC20) of the maximal agonist response was added to the cells, and the response was measured. Two minutes later, a concentration of mGluR4 agonist (e.g. glutamate or L-AP4) eliciting 80% (EC80) of the maximal agonist response was added to the cells, and the response was measured. For rat mGluR4/GIRK experiments, a baseline was established for approximately five seconds, disclosed compounds were added, and either an EC20 or EC80 concentration of agonist was added approximately two and one half minutes later. Potentiation of the agonist response of mGluR4 by the disclosed compounds was observed as an increase in response to the EC20 concentration of agonist in the presence of compound compared to the response to agonist in the absence of compound. Similarly, antagonism of the agonist response of mGluR4 by the disclosed compounds was observed as a decrease in response to the EC80 concentration of agonist in the presence of compound compared to the response to agonist in the absence of compound.
The above described assay operated in two modes. In the first mode, a range of concentrations of the disclosed compounds are added to cells, followed by a single fixed concentration of agonist. If the compound acts as a potentiatior, an EC50 value for potentiation and a maximum extent of potentiation by the compound at this concentration of agonist is determined by non-linear curve fitting. If the compound acts as a noncompetitive antagonist, an IC50 value is determined by non-linear curve fitting. In the second mode, several fixed concentrations of the disclosed compounds are added to various wells on a plate, followed by a range in concentrations of agonist for each concentration of disclosed compound. The EC50 values for the agonist at each concentration of compound are determined by non-linear curve fitting. A decrease in the EC50 value of the agonist with increasing concentrations of the sample compound (a leftward shift of the agonist concentration-response curve) is an indication of the degree of mGluR4 potentiation at a given concentration of the sample compound. A decrease in the maximal response of the agonist with increasing concentrations of the sample compounds, with or without a rightward shift in agonist potency, is an indication of the degree of noncompetitive antagonism at mGluR4. The second mode also indicates whether the sample compounds also affect the maximum response to mGluR4 to agonists.

T1 sequence (Q14833 33-912): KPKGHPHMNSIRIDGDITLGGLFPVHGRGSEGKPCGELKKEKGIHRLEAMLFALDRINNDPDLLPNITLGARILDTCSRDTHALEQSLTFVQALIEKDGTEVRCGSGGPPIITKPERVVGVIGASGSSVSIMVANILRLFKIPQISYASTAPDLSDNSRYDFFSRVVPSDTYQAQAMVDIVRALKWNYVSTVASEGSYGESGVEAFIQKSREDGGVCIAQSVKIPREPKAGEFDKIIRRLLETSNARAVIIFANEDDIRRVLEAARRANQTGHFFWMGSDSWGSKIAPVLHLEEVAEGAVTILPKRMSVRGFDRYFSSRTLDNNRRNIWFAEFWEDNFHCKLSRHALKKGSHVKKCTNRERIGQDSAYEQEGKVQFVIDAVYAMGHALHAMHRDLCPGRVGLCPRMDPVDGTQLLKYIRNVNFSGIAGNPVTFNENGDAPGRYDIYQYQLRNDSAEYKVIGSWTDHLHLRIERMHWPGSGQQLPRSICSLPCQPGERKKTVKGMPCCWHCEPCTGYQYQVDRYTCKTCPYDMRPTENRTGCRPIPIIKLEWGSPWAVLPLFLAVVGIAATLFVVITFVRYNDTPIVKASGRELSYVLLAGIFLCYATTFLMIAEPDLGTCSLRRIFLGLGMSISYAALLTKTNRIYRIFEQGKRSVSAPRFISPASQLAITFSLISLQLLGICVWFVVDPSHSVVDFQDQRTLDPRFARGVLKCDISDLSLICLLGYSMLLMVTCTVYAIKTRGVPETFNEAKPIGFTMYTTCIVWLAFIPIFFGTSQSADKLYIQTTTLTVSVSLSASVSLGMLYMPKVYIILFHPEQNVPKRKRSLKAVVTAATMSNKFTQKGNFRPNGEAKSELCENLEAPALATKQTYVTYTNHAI

Row | SMILES | EC50 [nM]
1 | FC(F)Oc1cccc(Nc2noc3cccnc23)c1 [Example 2, N-(3-(difluoromethoxy)phenyl)isoxazolo[4,5-b]pyridin-3-amine] | 364
2 | FC(F)(F)c1cccc(Nc2noc3cccnc23)c1 [Example 6, N-(3-(trifluoromethyl)phenyl)isoxazolo[4,5-b]pyridin-3-amine] | 434
3 | COc1ccc(Nc2noc3cccnc23)cc1OC [Example 8, N-(3,4-dimethoxyphenyl)isoxazolo[4,5-b]pyridin-3-amine] | 4340
4 | Fc1cccc(Nc2noc3cccnc23)c1 [Example 9, N-(3-fluorophenyl)isoxazolo[4,5-b]pyridine-3-amine] | 651

Second part, the molecule after the results:

Row | EC50 [nM] | SMILES
5 | 209 | Clc1cccc(Nc2noc3cccnc23)c1 [Example 1, N-(3-chlorophenyl)isoxazolo[4,5-b]pyridin-3-amine]
6 | 893 | Fc1ccc(Nc2noc3cccnc23)cc1Cl [Example 3, N-(3-chloro-4-fluorophenyl)isoxazolo[4,5-b]pyridin-3-amine]
7 | 4610 | Clc1ccc(Nc2noc3cccnc23)cc1Cl [Example 4, N-(3,4-dichlorophenyl)isoxazolo[4,5-b]pyridin-3-amine]
8 | 78.8 | COc1ccc(Nc2noc3cccnc23)cc1Cl [Example 5, N-(3-chloro-4-methoxyphenyl)isoxazolo[4,5-b]pyridin-3-amine]
9 | 2100 | COc1cc(Nc2noc3cccnc23)ccc1Cl [Example 7, N-(4-chloro-3-methoxyphenyl)isoxazolo[4,5-b]pyridin-3-amine]

Same assay, conditions: EC50 for potentiation of mGluR4; unit inferred, exponent notation

Row | SMILES | EC50 [nM]
10 | O=S(=O)(Cc1ccccc1Cl)n1ccc(Nc2noc3cccnc23)c1 [Example 16, N-(1-((2-chlorobenzyl)sulfonyl)-1H-pyrrol-3-yl)isoxazolo[4,5-b]pyridin-3-amine] | 89.2
11 | c1ccc(Nc2noc3cccnc23)cc1 [Example 17, N-phenylisoxazolo[4,5-b]pyridin-3-amine] | 2030
12 | FC(F)(F)Oc1cccc(Nc2noc3cccnc23)c1 [Example 18, N-(3-(trifluoromethoxy)phenyl)isoxazolo[4,5-b]pyridin-3-amine] | 1170
13 | c1cnc2c(Nc3ccc4c(c3)OCO4)noc2c1 [Example 19, N-(benzo[d][1,3]dioxol-5-yl)isoxazolo[4,5-b]pyridin-3-amine] | 1000
14 | CC(=O)c1cccc(Nc2noc3cccnc23)c1 [Example 22, l-(3-(isoxazolo[4,5-b]pyridin-3-ylamino)phenyl)ethanone] | 3660
15 | FC(F)C(F)(F)Oc1cccc(Nc2noc3cccnc23)c1 [Example 26] | 4040
16 | Fc1ccc2onc(Nc3cccc(Cl)c3)c2n1 [Example 27, N-(3-chlorophenyl)-5-fluoroisoxazolo[4,5-b]pyridin-3-amine] | 153
17 | Clc1cccc(Nc2noc3ccccc23)c1 [Example 30, N-(3-chlorophenyl)benzo[d]isoxazol-3-amine] | 1140
18 | Fc1cccc(Nc2noc3ccccc23)c1 [Example 31, N-(3-fluorophenyl)benzo[d]isoxazol-3-amine] | 4090
19 | COc1ccc(Nc2noc3ccccc23)cc1Cl [Example 33, N-(3-chloro-4-methoxyphenyl)benzo[d]isoxazol-3-amine] | 7030

Second part, the molecule after the results:

Row | EC50 [nM] | SMILES
20 | 590 | Cc1cc(Nc2noc3cccnc23)ccc1Cl [Example 20, N-(4-chloro-3-methylphenyl)isoxazolo[4,5-b]pyridin-3-amine]
21 | 338 | Fc1ccc(Nc2noc3cccnc23)cc1F [Example 23, N-(3,4-difluorophenyl)isoxazolo[4,5-b]pyridin-3-amine]
22 | 468 | COc1cc(Nc2noc3cccnc23)ccc1F [Example 24, N-(4-fluoro-3-methoxyphenyl)isoxazolo[4,5-b]pyridin-3-amine]
